The numbers were not newly measured in patent US9572781B2, “Orally disintegrating tablet compositions comprising combinations of non-opioid and opioid analgesics” (Adare Pharmaceuticals, Inc., priority 2009, dated 2017), which cites them from elsewhere.

As for `CC(=O)Nc1ccc(O)cc1` [acetaminophen], the Drug detectable result (after about 8 hours) was “only traces”. Further, the “Time to peak plasma concentrations” value (following oral administration) is 30 to 60 min.
